Laboratory results reported in publication PMC4422956 (EJNMMI Research, 2014).

Columns and labels:
human DA D2L receptor [1] = biological target: T1, human DA D2L receptor (Homo sapiens, UniProt P14416); test: cAMP accumulation, HEK […] cells; format: cell-based; conditions: read-out: cAMP / Potency (converted)
T1 construct: gene DRD2; full-length D2L stably expressed in HEK 293 cells

human DA D2L receptor [2] = biological target: T1, human DA D2L receptor; test: 3H-spiperone radioligand binding, membranes; conditions: read-out: pK i D 2 -high (converted)
From the text: 3H-spiperone radioligand binding, membranes on human DA D2L receptor

T1 sequence (P14416 whole entry): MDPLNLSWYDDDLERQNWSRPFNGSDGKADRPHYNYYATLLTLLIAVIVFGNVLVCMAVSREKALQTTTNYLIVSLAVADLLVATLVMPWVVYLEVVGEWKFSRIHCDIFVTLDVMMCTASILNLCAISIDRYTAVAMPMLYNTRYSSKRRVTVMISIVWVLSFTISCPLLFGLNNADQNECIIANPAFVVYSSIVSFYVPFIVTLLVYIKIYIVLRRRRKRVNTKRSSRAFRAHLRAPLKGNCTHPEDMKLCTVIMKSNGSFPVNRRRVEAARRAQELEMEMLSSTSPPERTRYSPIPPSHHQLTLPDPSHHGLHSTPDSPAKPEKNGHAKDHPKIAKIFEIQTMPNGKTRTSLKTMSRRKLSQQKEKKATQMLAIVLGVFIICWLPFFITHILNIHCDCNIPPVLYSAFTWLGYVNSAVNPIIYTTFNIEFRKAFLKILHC

CCN1CCC[C@H]1CNC(=O)c1c(OC)ccc(I)c1O [IBZM]
EC50 (human DA D2L receptor [1]): 0.832 nM | Ki (human DA D2L receptor [2]): 102 nM
